Measurements: patent US9902736B2, “1-oxo/acylation-14-acylated oridonin derivative, preparation method therefor and application thereof” (HANGZHOU BENSHENG PHARMACEUTICAL CO., LTD., priority 2012, dated 2018)
≈ marks a conversion by molar mass, not a printed value.

Experiments:
RPMI 8226 = experiment: Multiple myeloma cell growth inhibition, MTT, 72 h; assay type: cell-based; conditions: Homo sapiens
Procedure: Multiple myeloma cell lines: RPMI8226 (multiple myeloma), purchased from Fuxiang Bio-tech Co. Ltd., Shanghai, China.
(§1) 6000 well-growing cells were obtained and inoculated into wells of a 96-well cell culture plate. […] On the next day, the 1-oxo/acylated-14-acylated oridonin derivatives of different concentrations were added and mixed uniformly. The plate was placed in a carbon dioxide cell incubator (5% CO2) at 37° C. and incubated for 72 hours. Then the viable cell concentration was determined by MTT method.

Jurkat = experiment: Leukemia cell growth inhibition, MTT, 72 h; assay type: cell-based, human; conditions: Homo sapiens, Jurkat; 72 h, MTT
From the text: (§2) Leukemia cell lines: leukemia cell lines: K562/adr (drug-resistant, chronic myeloid leukemia, CML), NB4 (acute promyelocytic leukemia, AML), Kasumi-1 (acute myeloid leukemia M2 type, AML-M2), Jurkat (acute lymphoblastic leukemia, ALL), all of which were donated by Cancer Research Institute of Zhejiang University, China; and H9 (acute lymphoblastic leukemia, ALL), which was purchased from China Center for Type Culture Collection.
as §1, with “6000 well-growing leukemia cells were” for “6000 well-growing cells were”, “C. and was incubated for” for “C. and incubated for”

NB4 = experiment: Leukemia cell growth inhibition, MTT, 72 h; assay type: cell-based, human; conditions: Homo sapiens, NB-4; 72 h, MTT
From the text: as §2
as §1, with “6000 well-growing leukemia cells were” for “6000 well-growing cells were”, “C. and was incubated for” for “C. and incubated for”

H9 = experiment: Leukemia cell growth inhibition, MTT, 72 h; assay type: cell-based, human; conditions: Homo sapiens, H9; 72 h, MTT
From the text: as §2
as §1, with “6000 well-growing leukemia cells were” for “6000 well-growing cells were”, “C. and was incubated for” for “C. and incubated for”

K562/ADR = experiment: Leukemia cell growth inhibition, MTT, 72 h; assay type: cell-based; conditions: Homo sapiens
From the text: as §2
as §1, with “6000 well-growing leukemia cells were” for “6000 well-growing cells were”, “C. and was incubated for” for “C. and incubated for”

Kasumi-1 = experiment: Leukemia cell growth inhibition, MTT, 72 h; assay type: cell-based; conditions: Homo sapiens
From the text: as §2
as §1, with “6000 well-growing leukemia cells were” for “6000 well-growing cells were”, “C. and was incubated for” for “C. and incubated for”

Hep G2 = experiment: Solid tumor cell growth inhibition, MTT, 72 h; assay type: cell-based; conditions: Homo sapiens, HepG2
Procedure: (§3) 6000 well-growing human solid tumor cells were obtained and inoculated into wells of a 96-well cell culture plate. The culture medium was DMEM High Glucose cell culture medium containing 10% fetal bovine serum. The plate was placed in a carbon dioxide cell incubator (5% CO2) at 37° C. and incubated for 24 hours. After added with 1-oxo/acylated-14-acylated oridonin derivatives of different concentration and mixed uniformly, the plate was placed in a carbon dioxide cell incubator (5% CO2) at 37° C. and incubated for 72 hours. Then the viable cell concentration was determined by MTT method.

A549 = experiment: Solid tumor cell growth inhibition, MTT, 72 h; assay type: cell-based; conditions: Homo sapiens
Procedure: as §3

Becap-37 = experiment: Solid tumor cell growth inhibition, MTT, 72 h; assay type: cell-based; conditions: Homo sapiens
Procedure: as §3

PC-3 = experiment: Solid tumor cell growth inhibition, MTT, 72 h; assay type: cell-based; conditions: Homo sapiens
Procedure: as §3

SK-OV-3 = experiment: Solid tumor cell growth inhibition, MTT, 72 h; assay type: cell-based; conditions: Homo sapiens, SK-OV-3, 72 h, MTT
Procedure: as §3

PANC-1 = experiment: Solid tumor cell growth inhibition, MTT, 72 h; assay type: cell-based; conditions: Homo sapiens
Procedure: as §3

CaEs-17 = experiment: Solid tumor cell growth inhibition, MTT, 72 h; assay type: cell-based; conditions: Homo sapiens, CaEs17
Procedure: as §3

U87-MG = experiment: Solid tumor cell growth inhibition, MTT, 72 h; assay type: cell-based; conditions: Homo sapiens, U-87 MG
Procedure: as §3

RKO = experiment: Solid tumor cell growth inhibition, MTT, 72 h; assay type: cell-based; conditions: Homo sapiens
Procedure: as §3

MG-63 = experiment: Solid tumor cell growth inhibition, MTT, 72 h; assay type: cell-based; conditions: Homo sapiens
Procedure: as §3

Hela = experiment: Solid tumor cell growth inhibition, MTT, 72 h; assay type: cell-based, human; conditions: Homo sapiens, HeLa; 72 h, MTT
Procedure: as §3

MGC-803 = experiment: Solid tumor cell growth inhibition, MTT, 72 h; assay type: cell-based, human; conditions: Homo sapiens, MGC-803; 72 h, MTT
Procedure: as §3

Hep-2 = experiment: Solid tumor cell growth inhibition, MTT, 72 h; assay type: cell-based, human; conditions: Homo sapiens, HEp-2; 72 h, MTT
Procedure: as §3

CNE = experiment: Solid tumor cell growth inhibition, MTT, 72 h; assay type: cell-based, human; conditions: Homo sapiens, CNE; 72 h, MTT
Procedure: as §3

IC50 (RPMI 8226): 0.41 µg/mL (≈ 0.879 µM)
IC90 (RPMI 8226): 1.89 µg/mL (≈ 4.05 µM)
IC50 (Jurkat): 0.68 µg/mL (≈ 1.46 µM)
IC90 (Jurkat): 2.63 µg/mL (≈ 5.64 µM)
IC50 (NB4): 0.14 µg/mL (≈ 0.3 µM)
IC90 (NB4): 0.47 µg/mL (≈ 1.01 µM)
IC50 (H9): 0.45 µg/mL (≈ 0.965 µM)
IC90 (H9): 0.95 µg/mL (≈ 2.04 µM)
IC50 (K562/ADR): 0.6 µg/mL (≈ 1.29 µM)
IC90 (K562/ADR): 1.73 µg/mL (≈ 3.71 µM)
IC50 (Kasumi-1): 0.72 µg/mL (≈ 1.54 µM)
IC90 (Kasumi-1): 1.86 µg/mL (≈ 3.99 µM)
IC50 (Hep G2): 0.98 µg/mL (≈ 2.1 µM)
IC90 (Hep G2): 10.6 µg/mL (≈ 22.7 µM)
IC50 (A549): 2.6 µg/mL (≈ 5.57 µM)
IC90 (A549): 6.08 µg/mL (≈ 13 µM)
IC50 (Becap-37): 1.12 µg/mL (≈ 2.4 µM)
IC90 (Becap-37): 3.79 µg/mL (≈ 8.12 µM)
IC50 (PC-3): 1.67 µg/mL (≈ 3.58 µM)
IC90 (PC-3): 3.8 µg/mL (≈ 8.15 µM)
IC50 (SK-OV-3; read-out: IC50 SK-OV-3): 1.67 µg/mL (≈ 3.58 µM)
IC90 (SK-OV-3; read-out: IC90 SK-OV-3): 3.8 µg/mL (≈ 8.15 µM)
IC50 (PANC-1): 1.79 µg/mL (≈ 3.84 µM)
IC90 (PANC-1): 6.42 µg/mL (≈ 13.8 µM)
IC50 (CaEs-17): 1.21 µg/mL (≈ 2.59 µM)
IC90 (CaEs-17): 5.47 µg/mL (≈ 11.7 µM)
IC50 (U87-MG): 0.8 µg/mL (≈ 1.71 µM)
IC90 (U87-MG): 2.36 µg/mL (≈ 5.06 µM)
IC50 (RKO): 0.46 µg/mL (≈ 0.986 µM)
IC90 (RKO): 0.94 µg/mL (≈ 2.01 µM)
IC50 (MG-63): 0.47 µg/mL (≈ 1.01 µM)
IC90 (MG-63): 0.99 µg/mL (≈ 2.12 µM)
IC50 (Hela): 1.65 µg/mL (≈ 3.54 µM)
IC90 (Hela): 4.67 µg/mL (≈ 10 µM)
IC50 (MGC-803): 0.88 µg/mL (≈ 1.89 µM)
IC90 (MGC-803): 11 µg/mL (≈ 23.5 µM)
IC50 (Hep-2): 1.64 µg/mL (≈ 3.52 µM)
IC90 (Hep-2): 7.7 µg/mL (≈ 16.5 µM)
IC50 (CNE): 1.41 µg/mL (≈ 3.02 µM)
IC90 (CNE): 5.45 µg/mL (≈ 11.7 µM)
Compound: C=C1C(=O)[C@]23[C@H](OC(=O)c4ccccc4)[C@H]1CC[C@H]2[C@@]12CO[C@@]3(O)[C@@H](O)[C@@H]1C(C)(C)CCC2=O [BS-OR-001]
